Experimental data taken from patent publication US9458104B2 (priority 2012, dated 2016).

Tests used:
[1] = target: T1, RORγ ligand binding domain (LBD) (Homo sapiens, UniProt P51449); assay: TR-FRET Activity Assay (ligand sensing assay, RORγ-LBD / coactivator peptide interaction); format: biochemical
T1 construct: made in house; host or cells: E. coli BL-21 (BL3), vector pDEST15
T1 sequence (P51449 269-508 limits assumed): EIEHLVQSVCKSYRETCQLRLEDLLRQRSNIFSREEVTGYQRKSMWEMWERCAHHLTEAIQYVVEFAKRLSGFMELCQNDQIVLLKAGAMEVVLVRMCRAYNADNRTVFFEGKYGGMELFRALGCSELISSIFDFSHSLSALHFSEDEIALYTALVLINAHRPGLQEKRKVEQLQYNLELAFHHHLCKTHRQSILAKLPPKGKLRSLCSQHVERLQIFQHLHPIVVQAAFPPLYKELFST
Procedure, shortened: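 GST-RORγ LBD expressed in bacteria, 20–60 ng/well, with biotinylated coactivator peptide 200–600 nM, streptavidin-APC and Eu-anti-GST. Buffer: 20 mM Tris-HCl pH 6.8, 60 mM KCl, 1 mM DTT, 5 mM MgCl2, BSA; 1% DMSO. LANCE TR-FRET 665/615 nm ratio; IC50 from four-parameter logistic fit.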

RORγ = target: T2, RORγ (UniProt P51449); format: cell-based; settings: 293T cells, 16 h; for pIC50 (FF): firefly (FF) luciferase; for pIC50 (REN): renilla normalised (RENnorm) luciferase
T2 construct: hRORg-LBD|aa259-518|NP_005051.2; hRORgt|aa1-497|NP_001001523 (RORg, t isoform, 497aa); mRORg-LBD|aa264-516|NP_035411
T2 sequence (P51449 1-518): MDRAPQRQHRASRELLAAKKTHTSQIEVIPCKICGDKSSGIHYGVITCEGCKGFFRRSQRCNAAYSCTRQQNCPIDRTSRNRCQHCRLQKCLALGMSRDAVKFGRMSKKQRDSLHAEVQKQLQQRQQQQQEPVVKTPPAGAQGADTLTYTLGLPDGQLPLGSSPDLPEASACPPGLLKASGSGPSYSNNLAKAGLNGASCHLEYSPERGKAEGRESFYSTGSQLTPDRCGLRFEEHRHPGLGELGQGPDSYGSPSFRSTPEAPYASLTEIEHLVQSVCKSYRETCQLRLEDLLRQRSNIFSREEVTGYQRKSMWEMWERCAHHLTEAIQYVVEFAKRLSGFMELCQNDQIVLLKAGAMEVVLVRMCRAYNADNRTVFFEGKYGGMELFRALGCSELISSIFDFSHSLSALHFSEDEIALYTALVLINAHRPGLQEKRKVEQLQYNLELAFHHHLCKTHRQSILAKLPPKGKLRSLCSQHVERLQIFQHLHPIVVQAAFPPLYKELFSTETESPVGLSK

| SMILES | IC50 [1] [µM] | pIC50 (FF) (RORγ) | pIC50 (REN) (RORγ) |
| --- | --- | --- | --- |
| Cc1c(C(=O)NC2CCOCC2)cc(-c2ccc(S(=O)(=O)NC(C)(C)C)c(C(F)(F)F)c2)n1CC(C)(C)C [302/2] | 5.01 | 6.1 | 6.1 |
| Cc1c(C(=O)CC2CC2)cc(-c2cc(C(C)(C)C)cc(C(C)(C)C)c2)n1CC1CCCCC1 [Example 324, 1-(1-(Cyclohexylmethyl)-5-(3,5-di-tert-butylphenyl)-2-methyl-1H-pyrrol-3-yl)-2-cyclopropylethanone] | 0.631 | < 4.7 | < 4.7 |
| Cc1c(C(=O)NC2CCOCC2)cc(-c2ccc(S(=O)(=O)NC(C)(C)C)c(C(F)(F)F)c2)n1CC(C(F)(F)F)C(F)(F)F [Example 319, 5-(4-(N-(tert-Butyl)sulfamoyl)-3-(trifluoromethyl)phenyl)-2-methyl-N-(tetrahydro-2H-pyran-4-yl)-1-(3,3,3-trifluoro-2-(trifluoromethyl)propyl)-1H-pyrrole-3-carboxamide] | 5.01 | 6.0 | 5.8 |
| Cc1c(C(=O)NCC(C)(C)O)cn(-c2cc(C(C)(C)C)cc(C3(C)CC3)c2)c1CC1CCCCC1 [Example 1/1] | 0.2 | 7.4 | 7.5 |
| CC1(CNC(=O)c2nn(-c3cc(C(C)(C)C)nc(C(C)(C)C)c3)c(CC3CCCCC3)c2Cl)COC1 [Example 105, 4-Chloro-5-(cyclohexylmethyl)-1-(2,6-di-tert-butylpyridin-4-yl)-N-((3-methyloxetan-3-yl)methyl)-1H-pyrazole-3-carboxamide] | 6.31 | < 4.7 | < 4.7 |
| Cc1c(C(=O)NC2CCOCC2)cc(-c2ccc(S(=O)(=O)NC(C)(C)C)c(C(F)(F)F)c2)n1CC1CCCOC1 (stereo not drawn) [302/5] | 0.794 | 6.2 | 6.3 |
| CC(C)(C)c1cc(-c2cc(C(=O)NC3CCOCC3)nn2CC2CCCCC2)cc(C2(C)CC2)c1 [100/1] | 0.0794 | 7.3 | 7.4 |
| Cc1c(C(=O)N[C@H]2C[C@H](C(=O)O)C2)cn(-c2cc(C(C)(C)C)cc(C3(C)CC3)c2)c1C(=O)C1CCCCC1 [Example 6, (trans)-3-(1-(3-(tert-Butyl)-5-(1-methylcyclopropyl)phenyl)-5-(cyclohexanecarbonyl)-4-methyl-1H-pyrrole-3-carboxamido)cyclobutanecarboxylic acid] | 0.501 | 7.9 | 8.0 |
| Cc1c(S(=O)(=O)CC2CC2)cc(-c2cc(C(C)(C)C)cc(C(C)(C)C)c2)n1CC1CCCCC1 [Example 325, 1-(Cyclohexylmethyl)-3-((cyclopropylmethyl)sulfonyl)-5-(3,5-di-tert-butylphenyl)-2-methyl-1H-pyrrole] | 0.398 | 6.1 | 6.1 |
| Cn1c(C(=O)N2CC(C(C)(C)C(=O)O)C2)cc(-c2cc(C(C)(C)C)cc(C3(C)CC3)c2)c1CC1CCCCC1 [8/15] | 2 | 7.2 | 7.4 |
| Cn1c(C(=O)N[C@H]2CC[C@H](C(=O)O)CC2)cc(-c2cc(C(C)(C)C)cc(C3(C)CC3)c2)c1CC1CCCCC1 [8/11] | 1.26 | 7.3 | 7.4 |
| Cc1c(C(=O)N[C@H]2C[C@H](C(=O)O)C2)c(C)n(-c2cc(C(C)(C)O)cc(C3(C)CC3)c2)c1CC1CCCCC1 [Example 16, trans-3-(5-(Cyclohexylmethyl)-1-(3-(2-hydroxypropan-2-yl)-5-(1-methylcyclopropyl)phenyl)-2,4-dimethyl-1H-pyrrole-3-carboxamido)cyclobutanecarboxylic acid] | 1.58 | 6.6 | 6.7 |
| CC(C)NC(=O)c1cc(CC2CCCCC2)n(-c2cc(C(C)(C)C)cc(C(C)(C)C)c2)n1 [102/2] | 0.631 | < 4.7 | < 4.7 |
| CC(C)(C)c1cc(-c2nc(S(N)(=O)=O)nn2CC2CCCCC2)cc(C(C)(C)C)c1 [Example 309, 1-(Cyclohexylmethyl)-5-(3,5-di-tert-butylphenyl)-1H-1,2,4-triazole-3-sulfonamide] | 3.16 | < 4.7 | < 4.7 |
| COC(c1c(C)c(C(=O)NC2CCOCC2)cn1-c1cc(C(C)(C)C)cc(C2(C)CC2)c1)C1CCCCC1 (stereo not drawn) [Example 14, 1-(3-(tert-Butyl)-5-(1-methylcyclopropyl)phenyl)-5-(cyclohexyl(methoxy)methyl)-4-methyl-N-(tetrahydro-2H-pyran-4-yl)-1H-pyrrole-3-carboxamide] | 2 | 6.1 | 6.3 |
| Cn1c(C(=O)N[C@H]2C[C@H](C(=O)O)C2)cc(-c2cc(C(C)(C)C)nc(C(C)(C)C)n2)c1CC1CCCCC1 [8/19] | 0.794 | 6.8 | 6.8 |

| SMILES | IC50 [1] [µM] | pIC50 (FF) (RORγ) | pIC50 (REN) (RORγ) |
| --- | --- | --- | --- |
| Cc1c(C(=O)NC2CCOCC2)cc(-c2ccc(S(=O)(=O)NC(C)(C)C)c(C(F)(F)F)c2)n1CC1CCOC1 (stereo not drawn) [302/4] | 3.98 | < 4.7 | < 4.7 |
| Cc1c(C(=O)N[C@H]2C[C@H](C(=O)O)C2)cn(-c2cc(C(C)(C)C)cc(C3(C)CC3)c2)c1C(=O)N1CCCCC1 [Example 13/1] | 1 | 6.7 | 6.8 |
| CC(C)(C)NS(=O)(=O)c1ccc(-c2cc(C(=O)NCCC(C)(C)C(=O)O)nn2CC2CCCCC2)cc1C(C)(C)C [100/4] | 2 | 6.6 | 6.7 |
| CC(C)(C)c1cc(-c2[nH]c(C(=O)N[C@H]3C[C@H](C(=O)O)C3)cc2CC2CCCCC2)cc(C2(C)CC2)c1 [Example 12/2] | 1.26 | 6.6 | 6.6 |
| CC(C)(C)c1cc(-c2nc(C(=O)NC3CC3)nn2CC2CCCCC2)cc(C(C)(C)C)c1O [308/2] | 0.631 | 6.2 | 6.3 |
| Cn1c(C(=O)NCCC(C)(C)C(=O)O)cc(-c2ccc(S(=O)(=O)NC(C)(C)C)c(C(C)(C)C)c2)c1CC1CCCCC1 [Example 8/1] | 2 | 7.0 | 7.0 |
| Cn1c(C(=O)N[C@H]2C[C@H](C(=O)O)C2)c(Cl)c(CC2CCCCC2)c1-c1cc(C(C)(C)C)cc(C2(C)CC2)c1 [Example 18/1] | 0.794 | 6.6 | 6.7 |
| Cn1c(C(=O)NC2CCS(=O)(=O)CC2)cc(-c2ccc(S(=O)(=O)NC(C)(C)C)c3ccccc23)c1CC1CCCCC1 [8/6] | 0.501 | 7.8 | 7.9 |
| Cn1c(C(=O)NCC(C)(C)C(=O)O)cc(-c2cc(C(C)(C)C)cc(C3(C)CC3)c2)c1CC1CCCCC1 [8/13] | 2.51 | 7.4 | 7.6 |
| Cc1c(C(=O)NC2CCOCC2)cc(-c2ccc(S(=O)(=O)NC(C)(C)C)c(C(F)(F)F)c2)n1CC1COC1 [302/3] | 15.8 | 6.3 | 6.2 |
| Cc1cc(-n2nc(C(N)=O)cc2CC2CCCCC2)cc(C(C)(C)C)c1 [312/2] | 7.94 | < 4.7 | < 4.7 |
| CC(C)(C)c1cc(-n2nc(C(=O)NS(C)(=O)=O)cc2CC2CCCCC2)cc(C(C)(C)C)c1 [Example 312/1] | 6.31 | < 4.7 | < 4.7 |
| Cn1c(C(=O)NC23CCC(C(=O)O)(CC2)CC3)cc(-c2cc(C(C)(C)C)cc(C3(C)CC3)c2)c1CC1CCCCC1 [8/14] | 2 | 7.4 | 7.6 |
| CCS(=O)(=O)c1cc(-c2cc(C(C)(C)C)cc(C(C)(C)C)c2)n(CC2CCCCC2)c1C [Example 325/1] | 0.251 | 6.0 | 6.3 |
| Cc1c(C(=O)N[C@H]2C[C@H](C(=O)O)C2)cn(-c2cc(C(C)(C)C)cc(C3(C)CC3)c2)c1S(=O)(=O)C1CCCCC1 [Example 23, trans-3-(1-(3-(tert-Butyl)-5-(1-methylcyclopropyl)phenyl)-5-(cyclohexylsulfonyl)-4-methyl-1H-pyrrole-3-carboxamido)cyclobutanecarboxylic acid] | 1.58 | 6.4 | 6.5 |
| Cn1c(C(=O)N[C@H]2C[C@H](C(=O)O)C2)cc(CC2CCCCC2)c1-c1cc(C(C)(C)C)cc(C2(C)CC2)c1 [Example 19/1] | 0.794 | 7.2 | 7.2 |
